Article PMC12615753, “Glutathione as a taste modulator: molecular mechanisms of interaction with umami and sweet taste receptors” (Food Chemistry: Molecular Sciences, 2025)

Molecular target: T1, hTAS1R1 D147A/rTAS1R3 (UniProt Q7RTX1+Q923K1, D147A)
T1 construct: UniProtKB number Q7RTX1–1); The cDNA coding region of rTAS1R3 was synthesized with optimized-codon usage for human expression; expressed in transfected cells; host or cells: HEK293T/17
T1 sequence (Q7RTX1 21-841 D147A): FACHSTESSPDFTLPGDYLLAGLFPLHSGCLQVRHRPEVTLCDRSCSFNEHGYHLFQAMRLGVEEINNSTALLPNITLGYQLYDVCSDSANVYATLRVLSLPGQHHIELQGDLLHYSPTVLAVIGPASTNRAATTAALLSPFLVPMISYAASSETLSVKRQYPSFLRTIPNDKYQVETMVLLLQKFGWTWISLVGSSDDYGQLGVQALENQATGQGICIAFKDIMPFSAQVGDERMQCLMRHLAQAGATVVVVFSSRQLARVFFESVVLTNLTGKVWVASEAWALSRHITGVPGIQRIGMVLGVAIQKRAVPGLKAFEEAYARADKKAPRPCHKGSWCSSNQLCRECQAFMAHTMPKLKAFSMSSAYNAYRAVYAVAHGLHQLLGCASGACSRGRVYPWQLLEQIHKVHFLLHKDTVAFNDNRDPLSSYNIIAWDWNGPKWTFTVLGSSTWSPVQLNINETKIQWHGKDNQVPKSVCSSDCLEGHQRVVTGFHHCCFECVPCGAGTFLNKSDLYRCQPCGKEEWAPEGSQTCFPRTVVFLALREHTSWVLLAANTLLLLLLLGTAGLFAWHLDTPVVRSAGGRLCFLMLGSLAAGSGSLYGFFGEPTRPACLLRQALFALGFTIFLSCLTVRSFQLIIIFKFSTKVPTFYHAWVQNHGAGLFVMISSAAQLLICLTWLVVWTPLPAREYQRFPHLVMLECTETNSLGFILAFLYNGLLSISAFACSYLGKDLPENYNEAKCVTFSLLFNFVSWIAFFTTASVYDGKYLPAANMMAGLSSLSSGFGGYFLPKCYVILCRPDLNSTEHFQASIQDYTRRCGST
T1 sequence (Q923K1 21-858): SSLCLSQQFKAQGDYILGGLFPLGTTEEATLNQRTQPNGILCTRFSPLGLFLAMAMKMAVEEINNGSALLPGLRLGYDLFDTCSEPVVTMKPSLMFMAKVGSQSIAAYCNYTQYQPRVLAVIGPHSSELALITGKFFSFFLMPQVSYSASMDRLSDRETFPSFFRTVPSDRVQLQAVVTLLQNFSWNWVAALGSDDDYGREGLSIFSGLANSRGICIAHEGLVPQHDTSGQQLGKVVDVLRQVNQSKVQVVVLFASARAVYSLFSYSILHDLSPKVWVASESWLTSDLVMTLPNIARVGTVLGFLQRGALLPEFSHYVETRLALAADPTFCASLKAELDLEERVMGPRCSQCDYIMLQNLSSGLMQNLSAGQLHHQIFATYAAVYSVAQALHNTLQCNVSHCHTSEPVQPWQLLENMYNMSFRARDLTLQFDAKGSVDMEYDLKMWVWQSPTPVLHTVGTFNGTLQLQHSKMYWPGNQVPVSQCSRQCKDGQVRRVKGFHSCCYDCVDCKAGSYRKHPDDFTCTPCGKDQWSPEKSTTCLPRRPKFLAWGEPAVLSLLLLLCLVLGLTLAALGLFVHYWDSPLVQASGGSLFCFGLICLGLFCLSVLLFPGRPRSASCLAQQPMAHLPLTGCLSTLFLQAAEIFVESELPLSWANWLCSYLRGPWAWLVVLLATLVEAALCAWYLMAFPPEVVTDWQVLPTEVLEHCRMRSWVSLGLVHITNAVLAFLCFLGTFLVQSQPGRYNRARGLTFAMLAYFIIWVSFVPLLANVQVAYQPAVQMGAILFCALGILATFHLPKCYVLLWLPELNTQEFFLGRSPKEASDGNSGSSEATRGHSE
Test: Calcium assay, hTAS1R1 mutant co-expressed with rTAS1R3
Assay type: cell-based, human, rat

SMILES | response to the agonist alone, vs WT (D147A) | EC50 | effect of the added compound (1 mM) on the response to L-Glu (D147A)
CCCC(CCC)NC(=O)c1ccc2c(c1)OCO2 [S807, N-(heptan-4-yl)benzo[d][1,3]dioxole-5-carboxamide, reference compound] | strongly affected |  | 
N[C@@H](CCC(=O)N[C@@H](CS)C(=O)NCC(=O)O)C(=O)O [GSH, γ-L-glutamyl-L-cysteinyl-glycine] | fully abolished | > 30 mM | did not affect
